Measurements as given in PubChem BioAssay AID330 (DTP/NCI, 2004).
Values joined by “and” are separate entries in the source; they are usually repeats but may differ in a detail not shown here. Equal entries are not always repeated. Toxic doses and inconclusive results are not listed. How the source made its calls: active means survival T/C of 150% or more; inactive means T/C below 125% in these data.

Tested on: P388 leukemia ip, CD2F1 mice, survival T/C
Assay: NCI In Vivo Anticancer Drug Screen. Data for tumor model P388 Leukemia (intraperitoneal) in CD2F1 (CDF1) mice
Details: endpoint: median survival time, higher = longer survival
In short: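 Mice carrying the transplanted tumor received test compound or vehicle. Survival was recorded in each group, and the value is the treated-group measurement divided by that of the vehicle-treated control group.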

[1] = dose: 50.0 mg/kg/injection, schedule: Q01DX009 (ip), vehicle: saline with Tween-80
[2] = dose: 100.0 mg/kg/injection, schedule: Q01DX009 (ip), vehicle: saline with Tween-80
[3] = dose: 60.0 mg/kg/injection, schedule: Q01DX005 (ip), vehicle: saline with Tween-80
[4] = dose: 120.0 mg/kg/injection, schedule: Q01DX005 (ip), vehicle: saline with Tween-80
[5] = dose: 240.0 mg/kg/injection, schedule: Q01DX005 (ip), vehicle: saline with Tween-80
[6] = dose: 50.0 mg/kg/injection, schedule: Q01DX005 (ip), vehicle: saline with Tween-80
[7] = dose: 100.0 mg/kg/injection, schedule: Q01DX005 (ip), vehicle: saline with Tween-80
[8] = dose: 60.0 mg/kg/injection, schedule: Q01DX005 (ip), vehicle: Klucel (hydroxypropylcellulose) (HPC)
[9] = dose: 120.0 mg/kg/injection, schedule: Q01DX005 (ip), vehicle: Klucel (hydroxypropylcellulose) (HPC)
[10] = dose: 240.0 mg/kg/injection, schedule: Q01DX005 (ip), vehicle: Klucel (hydroxypropylcellulose) (HPC)
[11] = dose: 12.5 mg/kg/injection, schedule: Q01DX005 (ip), vehicle: saline with Tween-80
[12] = dose: 25.0 mg/kg/injection, schedule: Q01DX005 (ip), vehicle: saline with Tween-80
[13] = dose: 200.0 mg/kg/injection, schedule: Q01DX005 (ip), vehicle: saline with Tween-80
[14] = dose: 60.0 mg/kg/injection, schedule: Q01DX005 (ip), vehicle: saline
[15] = dose: 120.0 mg/kg/injection, schedule: Q01DX005 (ip), vehicle: saline
[16] = dose: 240.0 mg/kg/injection, schedule: Q01DX005 (ip), vehicle: saline
[17] = dose: 12.5 mg/kg/injection, schedule: Q01DX009 (ip), vehicle: saline with Tween-80
[18] = dose: 25.0 mg/kg/injection, schedule: Q01DX009 (ip), vehicle: saline with Tween-80
[19] = dose: 50.0 mg/kg/injection, schedule: Q01DX005 (ip), vehicle: saline
[20] = dose: 100.0 mg/kg/injection, schedule: Q01DX005 (ip), vehicle: saline
[21] = dose: 200.0 mg/kg/injection, schedule: Q01DX005 (ip), vehicle: saline

Measured: T/C

Cn1c([N+](=O)[O-])cnc1CSC(=S)N1CCN(C(=S)SCc2ncc([N+](=O)[O-])n2C)CC1
inactive: [1] 99 % of control and 104 % of control and 96 % of control | [2] 101 % of control and 93 % of control and 95 % of control | dose: 200.0 mg/kg/injection, schedule: Q01DX009 (ip), vehicle: saline with Tween-80 102 % of control and 107 % of control and 92 % of control

CN(C)CCC(/C=C/c1ccco1)=N\NC(=S)Nc1ccc(Cl)cc1
inactive: dose: 100.0 mg/kg/injection, schedule: Q01DX001 (ip), vehicle: saline with Tween-80 97 % of control | dose: 200.0 mg/kg/injection, schedule: Q01DX001 (ip), vehicle: saline with Tween-80 101 % of control | dose: 400.0 mg/kg/injection, schedule: Q01DX001 (ip), vehicle: saline with Tween-80 103 % of control

O=C(O)C1CCC(=O)N1Cc1c[nH]c2ccccc12 (configuration not stated)
inactive: [3] 98 % of control | [4] 94 % of control | [5] 97 % of control

CC(C)(C)SSCCN
inactive: [6] 103 % of control | [7] 109 % of control

ONC(=Nc1cccc2ccccc12)C(=Nc1cccc2ccccc12)NO
inactive: [8] 99 % of control | [9] 102 % of control | [10] 103 % of control

Cc1ccc(S(=O)(=O)Oc2ccc3sc4cccc(NCCN(C)C)c4c(=O)c3c2)cc1
inactive: [11] 104 % of control | [12] 93 % of control | [6] 90 % of control and 96 % of control | [7] 92 % of control and 94 % of control | [13] 92 % of control | dose: 400.0 mg/kg/injection, schedule: Q01DX005 (ip), vehicle: saline with Tween-80 94 % of control

CS(=O)CC1OC2OC3C(CO)OC(OC4C(CO)OC(OC5C(CO)OC(OC6C(CO)OC(OC7C(CO)OC(OC8C(CO)OC(OC1C(O)C2O)C(O)C8O)C(O)C7O)C(O)C6O)C(O)C5O)C(O)C4O)C(O)C3O (configuration not stated)
inactive: [14] 100 % of control | [15] 106 % of control | [16] 104 % of control

CC[N+](CC)(CC)Cc1ccccc1
inactive: dose: 6.25 mg/kg/injection, schedule: Q04DX003 (ip), vehicle: saline sonified 109 % of control | dose: 12.5 mg/kg/injection, schedule: Q04DX003 (ip), vehicle: saline sonified 109 % of control | dose: 25.0 mg/kg/injection, schedule: Q04DX003 (ip), vehicle: saline sonified 109 % of control

Clc1ccc(CN2COc3c(ccc4ccccc34)C2)cc1
inactive: dose: 100.0 mg/kg/injection, schedule: Q04DX003 (ip), vehicle: Klucel (hydroxypropylcellulose) (HPC) 103 % of control | dose: 200.0 mg/kg/injection, schedule: Q04DX003 (ip), vehicle: Klucel (hydroxypropylcellulose) (HPC) 94 % of control | dose: 400.0 mg/kg/injection, schedule: Q04DX003 (ip), vehicle: Klucel (hydroxypropylcellulose) (HPC) 94 % of control

O=C1c2ccc[n+]3c2-c2c1ccc[n+]2CC3
inactive: dose: 12.5 mg/kg/injection, schedule: Q01DX001 (ip), vehicle: saline 108 % of control | dose: 25.0 mg/kg/injection, schedule: Q01DX001 (ip), vehicle: saline 115 % of control | dose: 50.0 mg/kg/injection, schedule: Q01DX001 (ip), vehicle: saline 101 % of control

CCOc1ccc(Br)cc1/C=N/NS(=O)(=O)c1ccc(C)cc1
inactive: [2] 123 % of control

O=C(O)c1c2c(nc3ccccc13)CCC(C(=O)O)C2 (configuration not stated)
inactive: [3] 96 % of control | [4] 102 % of control | [5] 96 % of control

CC1=CP(=O)(c2ccccc2)CC1 (configuration not stated) (tested in a mixture with another compound)
inactive: [14] 93 % of control | [15] 99 % of control | [16] 102 % of control

COC(=O)c1cc(-c2ccc(OC)cc2)c2c(=O)n(-c3ccccc3)[nH]c2n1
inactive: [3] 101 % of control | [4] 99 % of control | [5] 94 % of control

CC(NNC(=S)N1CC2CCC(CC2)C1)c1nccc2ccccc12 (configuration not stated)
inactive: [11] 110 % of control | [12] 103 % of control | [6] 119 % of control

CC(C)CCSC1=CC(=O)c2ccccc2C1=O
inactive: dose: 3.13 mg/kg/injection, schedule: Q01DX009 (ip), vehicle: saline with Tween-80 99 % of control | dose: 6.25 mg/kg/injection, schedule: Q01DX009 (ip), vehicle: saline with Tween-80 109 % of control | [17] 109 % of control | [18] 114 % of control

CC(C)(C)/C=C/N=NNc1cc2ccccc2s1
inactive: [8] 100 % of control | [9] 105 % of control | [10] 108 % of control

O=C(Oc1ccccc1)N1CCOCC1
inactive: dose: 50.0 mg/kg/injection, schedule: Q01DX009 (ip), vehicle: other 96 % of control | dose: 100.0 mg/kg/injection, schedule: Q01DX009 (ip), vehicle: other 102 % of control | dose: 200.0 mg/kg/injection, schedule: Q01DX009 (ip), vehicle: other 112 % of control

Cc1ccc2c(c1)C(=O)C(CN1CCOCC1)CCO2 (configuration not stated)
inactive: dose: 100.0 mg/kg/injection, schedule: Q04DX003 (ip), vehicle: saline 100 % of control | dose: 200.0 mg/kg/injection, schedule: Q04DX003 (ip), vehicle: saline 102 % of control | dose: 400.0 mg/kg/injection, schedule: Q04DX003 (ip), vehicle: saline 96 % of control

C=CC(C)CC(N)C(=O)O (configuration not stated)
inactive: [14] 123 % of control | [15] 105 % of control | [16] 104 % of control

NC1CCCCCCC1
inactive: [19] 94 % of control | [20] 103 % of control | [21] 117 % of control

CN(c1ccccc1)c1cc(O)[nH]c(=O)c1
inactive: dose: 12.5 mg/kg/injection, schedule: Q01DX009 (ip), vehicle: water 96 % of control | dose: 25.0 mg/kg/injection, schedule: Q01DX009 (ip), vehicle: water 111 % of control | dose: 50.0 mg/kg/injection, schedule: Q01DX009 (ip), vehicle: water 99 % of control | dose: 100.0 mg/kg/injection, schedule: Q01DX009 (ip), vehicle: water 100 % of control | dose: 200.0 mg/kg/injection, schedule: Q01DX009 (ip), vehicle: water 97 % of control

CCN(CC)CCC(=O)c1ccc(OC)c2ccccc12
inactive: [19] 103 % of control | [20] 104 % of control | [21] 103 % of control

O=C1c2cc3c(cc2C(=O)c2cc(-c4ccccc4)c(-c4ccccc4)cc21)OCO3
inactive: [3] 92 % of control | [4] 100 % of control | [5] 98 % of control and 102 % of control

Cc1nc(Nc2ccccc2)c2c(C)c[nH]c2n1
inactive: dose: 50.0 mg/kg/injection, schedule: Q01DX005 (ip), vehicle: Klucel (hydroxypropylcellulose) (HPC) 100 % of control | dose: 100.0 mg/kg/injection, schedule: Q01DX005 (ip), vehicle: Klucel (hydroxypropylcellulose) (HPC) 94 % of control

COc1ccc(-c2c(-c3ccccc3)c(=O)oc3cc(OC)ccc23)cc1
inactive: [3] 91 % of control | [4] 87 % of control and 88 % of control

CCOC(=O)/C(Cl)=C1\SN(C(=O)OCC)N=C1C
inactive: [6] 99 % of control | [7] 95 % of control | [13] 96 % of control

CC[As](=O)(O)CC(C)C
inactive: dose: 25.0 mg/kg/injection, schedule: Q04DX002 (ip), vehicle: saline 100 % of control | dose: 50.0 mg/kg/injection, schedule: Q04DX002 (ip), vehicle: saline 100 % of control

CCOC(=O)/C(C#N)=C/C=C1\C=CC=CN1C
inactive: [17] 95 % of control | [18] 86 % of control | [1] 90 % of control
